Reference: article PMC11656837, “pH-Responsive Peptide Nanoparticles Deliver Macromolecules to Cells via Endosomal Membrane Nanoporation” (ACS Nano, 2024)
Where no end group is shown, it is not given here.

Assays:
HeLa cells [1] = conditions: HeLa, 48 h
Source text: For this, we use PE-III, the third domain of the Pseudomonas exotoxin. This 25 kDa enzyme ADP ribosylates ribosomal elongation factor 2, thereby blocking protein synthesis and triggering apoptosis. […] Thus, apoptosis will occur only if an exogenous agent, such as a peptide, enables cytosolic delivery of the 4 × 3 nm PE-III protein, Figure 2A.
Comparison of peptide concentration midpoints requires a constant concentration of PE-III in each experiment. […] The major disadvantage of the PE-III assay to detect delivery is that only a few molecules of active PE-III delivered to the cytosol[36] will produce a positive result. To partly mitigate this effect in the assays described below, we use a constant 40 nM PE-III. At such a low concentration, each endosome will contain an average of fewer than one PE-III molecule if we assume passive entrapment of the cargo (see the Supporting Information).
The no treatment (no tx) control group contained cells but no peptide or PE-III enzyme. The Alamar Blue intensity of this group was defined as 100% viability. Media alone without cells was defined as 0% viability.
The concentration range used for each peptide was adjusted according to preliminary measurements of activity in this assay. We assessed PE-III delivery by measuring cell viability using Alamar Blue.
Fifteen thousand HeLa cells were seeded in a clear bottom, black-walled 96-well plate overnight at 37 °C with 5% CO2 in complete media (DMEM + phenol red +10% FBS + antimycotic/antibiotic + nonessential amino acids). Cells were then washed once in PBS and treated with PE-III and peptide in serum-free media without phenol red, with a 50 μL total volume. After a 2-day incubation with treatment, 50 μL of 10% Alamar blue reagent diluted in serum-free media was added directly to each well (5% Alamar blue final) and incubated for 1.5 h at 37 °C. The plate was then read at 550 equiv/590 em on a Biotek plate reader. Untreated cells were used as a negative control, and MelP5-treated cells served as a positive control.

HeLa cells [2] = test: Direct cytotoxicity without PE-III cargo (Alamar Blue); assay type: cell-based, human; conditions: 200 μM peptide, no PE-III, 48 h
Procedure: The no treatment (no tx) control group contained cells but no peptide or PE-III enzyme. The Alamar Blue intensity of this group was defined as 100% viability. Media alone without cells was defined as 0% viability. […] When 200 μM D-pHD108 and 40 nM PE-III were added together, essentially 100% loss of cell viability was observed, showing that PE-III was effectively delivered to the cytosol by the pHD peptide. […] This observation provides strong support for the hypothesis that PE-III delivery occurs via endocytosis and that it is dependent on endosomal acidification because the L-amino acid peptide, but not the D-amino acid peptide, is susceptible to acidification-dependent proteolytic degradation which occurs in endosomal compartments.
We tested for direct toxicity of the acylated pHD peptides by incubating the same concentrations of acylated pHD peptide variants with cells in the absence of PE-III. […] Thus, all of the apoptosis observed in the PE-III delivery assays was due to the cytosolic delivery of intact PE-III and not to the direct action of the acylated pHD peptide.

RAW macrophages = conditions: read-out: EC50 (peptide concentration midpoint for PE-III delivery), PE-III constant, 48 h, Alamar Blue

Which PE-III delivery/apoptosis (HeLa cells [1]; same concentration range as unmodified pHD108, 40 nM PE-III) does the source give for “PLGRPQLRRGQF-NH2 [ONEG, reference compound]” here?
Its PE-III delivery/apoptosis is “no measurable PE-III delivery/apoptosis”.

For `CC[C@@H](C)[C@@H](NC(=O)CN)C(=O)NCC(=O)N[C@H](CCC(=O)O)C(=O)N[C@@H](C(=O)N[C@H](CC(C)C)C(=O)N[C@H](Cc1c[nH]cn1)C(=O)N[C@H](CCC(=O)O)C(=O)N[C@H](CC(C)C)C(=O)N[C@H](C)C(=O)N[C@H](CCC(=O)O)C(=O)NCC(=O)N[C@H](CC(C)C)C(=O)N1CCC[C@@H]1C(=O)N[C@H](CCC(=O)O)C(=O)N[C@H](CC(C)C)C(=O)N[C@H](CCC(N)=O)C(=O)N[C@H](CCC(=O)O)C(=O)N[C@H](Cc1c[nH]c2ccccc12)C(=O)N[C@@H](C(=O)N[C@H](Cc1c[nH]cn1)C(=O)N[C@H](C)C(=O)N[C@H](C)C(=O)N[C@H](CCC(N)=O)C(=O)N[C@H](CCC(N)=O)C(=O)N[C@H](CC(C)C)C(N)=O)[C@H](C)CC)C(C)C` [D-pHD108], which “effect on cell viability, peptide alone” value (HeLa cells [2]) is on record?
The value was “no effect on cell viability”.

And the EC50 (RAW macrophages)?
The EC50 was 75 µM.

And the “loss of cell viability” value (HeLa cells [1]; 200 μM peptide + 40 nM PE-III, 37 °C, Alamar Blue)?
Its value is roughly 100%.
